According to PubChem BioAssay (NCI):
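Protocol summary: plate cells (96-well), add compound at 5 concentrations, incubate 48 h, interpolate endpoints linearly. The concentration for full growth arrest is given as TGI.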 Where a SMILES comes first, the peptide text is derived from it. The star is where a group is joined. Boc = CC(C)(C)OC(=O)*; OBn = c1ccc(CO*)cc1; Bn = c1ccc(C*)cc1

Legend:
Assay in all cases: NCI anticancer screen, dose series, 48 h
NCI-H23 lung = tested on: NCI-H23 lung
M14 melanoma = tested on: M14 melanoma
COLO 205 colon = tested on: COLO 205 colon
NCI-H522 lung = tested on: NCI-H522 lung
KM12 colon = tested on: KM12 colon
UACC-62 melanoma = tested on: UACC-62 melanoma
NCI/ADR-RES ovarian = tested on: NCI/ADR-RES ovarian
LOX IMVI melanoma = tested on: LOX IMVI melanoma
DU-145 prostate = tested on: DU-145 prostate
786-0 renal = tested on: 786-0 renal

SMILES | TGI (NCI-H23 lung) [µM] | TGI (M14 melanoma) [µM] | TGI (COLO 205 colon) [µM] | TGI (NCI-H522 lung) [µM] | TGI (KM12 colon) [µM] | TGI (UACC-62 melanoma) [µM] | TGI (NCI/ADR-RES ovarian) [µM] | TGI (LOX IMVI melanoma) [µM] | TGI (DU-145 prostate) [µM] | TGI (786-0 renal) [µM]
COc1ccc(/C=N/N=C(N)N)c(C(=O)O)c1OC | > 100 | > 100 | > 10 | > 100 | > 100 | > 100 | – | – | – | –
Brc1ccc2c(c1)[C@H]1CCc3c([nH]c4ccccc34)[C@H]1N2 | 25 | 29.9 | 23.6 | – | 18.6 | 24 | 29.6 | 19.1 | 25.5 | –
CC(C)=CCC[C@@H](C)c1c(O)c(O)c(C)c2nc3ccccc3nc12 | 8.61 | 12.9 | 18.1 | – | 13.2 | 6.72 | 7.48 | 16.8 | 10.3 | 12.1
CO/C=C(/C(=O)OC)c1ccccc1[C@H]1C[C@@H]1c1ccc(OC)cc1 | > 100 | 51.6 | 25.8 | 25.5 | 68.8 | 64.7 | 52.6 | – | > 100 | > 100
CC12CCC3=C(CSC4=C3CSc3ccccc34)C1=CCCC2=O (stereo not drawn) | > 100 | > 100 | 45.8 | > 100 | > 100 | – | – | > 100 | – | –
O=C1CCCn2c3ccccc3c3ccnc1c32 | > 100 | – | > 100 | > 100 | > 100 | 98 | > 100 | > 100 | – | –
COc1ccc(NC(=O)c2cc(NC(=O)/C=C/c3ccccc3)c(OC)c(OC)c2)cc1 | > 100 | > 100 | > 100 | – | > 100 | > 100 | > 100 | > 100 | > 100 | > 100
Nc1nc(-c2ccccc2)cc(-c2ccc(F)cc2)c1-c1ccc(Cl)cc1 | > 100 | > 100 | > 100 | – | > 100 | > 100 | > 100 | > 100 | > 100 | > 100
CSCC[C@@H](NC(=O)[C@H](CC(C)C)NC(=O)C(Cc1cnc[nH]1)NC(=O)CNC(=O)[C@@H](NC(=O)[C@H](C)NC(=O)[C@H](Cc1cn(C=O)c2ccccc12)NC(=O)[C@H](CCC(N)=O)NC(=O)[C@@H](N)CC(N)=O)C(C)C)C(N)=O (stereo partly drawn) | > 100 | – | > 100 | > 100 | > 100 | > 100 | > 100 | > 100 | – | –
N.N.NCCCCN.O=C([O-])CCl.O=C([O-])CCl.O=C([O-])CCl.O=C([O-])CCl.[Pt+4].[Pt+4] | > 50 | > 50 | > 50 | > 50 | > 50 | > 50 | – | > 50 | – | > 50
CCCCOP(=O)(OCCCC)C(NS(=O)(=O)c1ccccc1)(C(=O)OCC)C(F)(F)F (stereo not drawn) | > 100 | 68 | 38.7 | – | 93.2 | > 100 | 64.6 | 96.9 | > 100 | 88.1
c1ccc(C[P+]2(c3ccccc3)CCCCC2)cc1 | > 100 | > 100 | > 100 | > 100 | > 100 | > 100 | – | > 100 | – | > 100
COC12OC3(C4OC41)C(C(=O)O[C@H]3CO[Si](C)(C)C(C)(C)C)C2S(=O)(=O)c1ccccc1 (stereo partly drawn) | > 100 | – | 47.3 | 50.4 | – | > 7.52 | > 100 | – | > 6.06 | > 7.71
CN(C)CCNc1ccccn1 | > 100 | > 100 | – | > 100 | > 100 | > 100 | > 100 | > 100 | > 100 | > 100
CC(C)CC(NC(=O)C(CCC(=O)OCc1ccccc1)NC(=O)OC(C)(C)C)C(=O)NC(COCc1ccccc1)C(=O)NC(Cc1ccccc1)C(=O)O (stereo not drawn) (Boc-E(OBn)LS(Bn)F-OH; configuration not given here) | > 100 | > 100 | > 100 | – | > 100 | > 100 | – | – | – | > 100
Oc1cccc(-c2cc(=S)ss2)c1 | 23.1 | 37.7 | 35.6 | 20.4 | 43 | 38.2 | 53.7 | 33.3 | – | 36.2
COC(=O)c1ccc2c(c1)CC1(C2)Cc2ccc3c(c2C1)CCC3 (stereo not drawn) | > 100 | 13 | 32.1 | 66.8 | 40.9 | 40.6 | – | 60.7 | > 100 | > 100
Cc1cc([C@H](C#N)c2nc3ccccc3s2)nc(Cl)n1 | 15 | 79.2 | 6.49 | – | 9.08 | 20.5 | 10.8 | 10.4 | 91.7 | 29.8
O=C(O)C(C1NCCS1)N1Cc2ccccc2C1 (stereo not drawn) | > 100 | > 100 | > 100 | – | > 100 | > 100 | > 100 | > 100 | > 100 | > 100
